Source: US10350164B2, “Process for preparing a dry powder formulation comprising an anticholinergic, a corticosteroid and a beta-adrenergic” (CHIESI FARMACEUTICI S.p.A., priority 2017, dated 2019)

Tests used:
Format in all cases: physicochemical
[1] = Particle size distribution (PSD) by Malvern analysis, initially and after open-tray exposure
Experimental: The size of the particles active is determined by measuring the characteristic equivalent sphere diameter, known as volume diameter, by laser diffraction. […] However, other equivalent apparatus may be used.
(§1) Thin layer (˜0.5 cm) in open tray for 3 days at 30° C./65% relative humidity (RH);
(§2) Thin layer (˜0.5 cm) in open tray for 4 hours at 25° C./90% RH
(i) particle size distribution (PSD) in terms of d(v0.1), d(v0.5) and d(v0.9) by Malvern analysis, […]

[2] = Specific Surface Area (SSA) by BET nitrogen adsorption
Experimental: (§3) Co-micronized microparticles and reference micronized glycopyrronium bromide were exposed to the following conditions:
as §1, §2
(2) Specific Surface Area (SSA) by Brunauer-Emmett-Teller (BET) nitrogen adsorption method according to a known procedure, and […]

[3] = Recrystallization water by Dynamic Vapour Sorption (DVS)
Experimental: as §3, §1, §2
(3) recrystallization of water using a Dynamic Vapour Sorption (DVS) instrument (Mettler Toledo GmbH, Switzerland).

[4] = Aerosol performance by Next Generation Impactor (NGI) from multidose dry powder inhaler; conditions: for Mid Fine Particle Mass: between 2.0 and 5.0 micron; for Fine Particle Mass: particle size equal to or lower than 5.0 micron
Experimental: It is calculated by the percentage ratio of the fine particle mass (formerly fine particle dose) to the delivered dose.
The delivered dose is calculated from the cumulative deposition in the apparatus, while the fine particle mass is calculated from the deposition of particles having a diameter <5.0 microns.
After aerosolization of 3 doses from the inhaler device, the NGI apparatus was disassembled and the amounts of drug deposited in the stages were recovered by washing with a solvent mixture and then quantified by High-Performance Liquid Chromatography (HPLC).

[5] = Uniformity of distribution of the active ingredients in the blend by HPLC
Experimental: It is usually determined according to known methods, for instance by taking samples from different parts of the powder and testing the component by HPLC or other equivalent analytical methods.
The uniformity of distribution of the active ingredients was evaluated by withdrawing 12 samples from different parts of the blend and evaluated by HPLC.

[6] = Open thin layer 4 hours at 25° C./90% RH
[7] = Open thin layer 3 days at 30° C./65% RH
[8] = Example 3 formulation (6/100/12.5 μg)
[9] = Example 4 formulation (6/100/25 μg)

C[N+]1(C)CCC(OC(=O)C(O)(c2ccccc2)C2CCCC2)C1 (racemic) [GB, glycopyrronium bromide]
PSD D(v0.9) ([1]; Initial): 3.95 μm | PSD d(v0.1) ([1]; Initial): 0.60 μm | PSD d(v0.5) ([1]; Initial): 1.54 μm | PSD D(v0.9) [1, 6]: 1657 μm | PSD d(v0.1) [1, 6]: 2.74 μm | PSD d(v0.5) [1, 6]: 156 μm | PSD D(v0.9) [1, 7]: 7.59 μm | PSD d(v0.1) [1, 7]: 1.00 μm | PSD d(v0.5) [1, 7]: 3.91 μm | SSA ([2]; Initial): 7.31 m^2/g | SSA [2, 7]: 1.85 m^2/g | Re-crystallization water ([3]; Initial): 0.12 % w/w | Re-crystallization water [3, 7]: 0.02% w/w | Extrafine Particle Fraction <1 μm [4, 8]: 15.4% | Extrafine Particle Fraction <2 μm [4, 8]: 37.6% | Extrafine Particle Mass <1 μm [4, 8]: 1.8 µg | Extrafine Particle Mass <2 μm [4, 8]: 4.39 µg | Fine Particle Fraction [4, 8]: 67.2% | MMAD [4, 8]: 1.92 μm | Mid Fine particle Fraction [4, 8]: 29.6% | Mid Fine Particle Mass [4, 8]: 3.46 µg | Delivered Dose ([4]; Example 3 formulation (6/100/12.5 μg), mean±S.D): 11.66 (±0.4) μg | Fine Particle Mass [4, 8]: 7.85 µg | Delivered Dose [4, 9]: 21.30 µg | Extrafine Particle Fraction <1 μm [4, 9]: 8.2% | Extrafine Particle Fraction <2 μm [4, 9]: 25.8% | Extrafine Particle Mass <1 μm [4, 9]: 1.75 µg | Extrafine Particle Mass <2 μm [4, 9]: 5.49 µg | Fine Particle Fraction [4, 9]: 50.7% | MMAD [4, 9]: 2.15 μm | Mid Fine particle Fraction [4, 9]: 27.9% | Mid Fine Particle Mass [4, 9]: 5.94 µg | Fine Particle Mass [4, 9]: 10.8 µg

CCC(=O)OCC(=O)[C@@]1(OC(=O)CC)[C@@H](C)C[C@H]2[C@@H]3CCC4=CC(=O)C=C[C@]4(C)[C@@]3(Cl)[C@@H](O)C[C@@]21C [BDP, beclometasone dipropionate]
Uniformity of distribution ([5]; Example 3 formulation (FF 6 μg/BDP 100 μg/GB 12.5 μg per 10 mg carrier), 12 samples, mean value±RSD): 101.8 (±1.1) | Uniformity of distribution ([5]; Example 4 formulation (FF 6 μg/BDP 100 μg/GB 25 μg per 10 mg carrier)): 100.2 (±1.2)
